≈ marks a conversion by molar mass, not a printed value.
Key:
[1] = target: T1, P2X purinoceptor 7 (Mus musculus, UniProt Q9Z1M0); test: Antagonist activity at recombinant mouse P2X7 receptor expressed in human 1321N1 cells assessed as inhibition of Bz-ATP-induced Ca2+ flux preincubated for 30 mins followed by agonist addition measured after 180 sec by calcium-4 dye based FLIPR assay; type: cell-based
T1 sequence (Q9Z1M0 whole entry): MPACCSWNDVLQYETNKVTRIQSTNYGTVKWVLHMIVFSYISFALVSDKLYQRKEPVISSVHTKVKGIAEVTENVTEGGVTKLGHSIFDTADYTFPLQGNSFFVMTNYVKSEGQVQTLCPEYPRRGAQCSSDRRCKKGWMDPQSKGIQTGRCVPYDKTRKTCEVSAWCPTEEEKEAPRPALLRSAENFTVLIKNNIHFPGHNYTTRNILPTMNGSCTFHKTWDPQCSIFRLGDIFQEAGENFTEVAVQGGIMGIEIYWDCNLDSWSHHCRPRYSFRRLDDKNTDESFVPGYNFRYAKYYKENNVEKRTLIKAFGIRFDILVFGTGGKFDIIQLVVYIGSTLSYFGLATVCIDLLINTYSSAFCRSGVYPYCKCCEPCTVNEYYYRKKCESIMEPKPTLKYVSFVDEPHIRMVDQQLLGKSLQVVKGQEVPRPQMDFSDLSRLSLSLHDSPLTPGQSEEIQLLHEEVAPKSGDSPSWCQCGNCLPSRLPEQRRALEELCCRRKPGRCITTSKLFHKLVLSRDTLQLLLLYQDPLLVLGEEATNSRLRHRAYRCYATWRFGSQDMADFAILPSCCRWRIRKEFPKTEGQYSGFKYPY

[2] = Protein binding in human plasma at 1 uM after 6 hrs by LC/MS/MS based equilibrium dialysis method; type: ADME, cell-free; settings: read-out: PPB (converted)
[3] = Protein binding in rat plasma at 1 uM after 6 hrs by LC/MS/MS based equilibrium dialysis method; type: ADME, cell-free; settings: read-out: PPB (converted)
[4] = Drug metabolism in human liver microsomes assessed as oxidation of fluoropyridine substituent at 10 uM after 60 mins by LC/MS/MS analysis; type: ADME; settings: 1 h
[5] = tested on: Rattus norvegicus; test: Ex vivo receptor occupancy at P2X7 receptor in po dosed rat brain hippocampal tissue assessed as plasma concentration required for [3H]-(S)-7-(2-chloro-3-(trifluoromethyl)benzyl)-6-methyl-3-(pyrazin-2-yl)-6,7-dihydro-[1,2,4]triazolo[4,3-a]pyrazin-8(5H)-one displacement after 30 mins; type: functional, organism-based
[6] = tested on: Rattus norvegicus; test: Ex vivo receptor occupancy at P2X7 receptor in po dosed rat brain hippocampal section assessed as displacement of [3H]-(S)-7-(2-chloro-3-(trifluoromethyl)benzyl)-6-methyl-3-(pyrazin-2-yl)-6,7-dihydro-[1,2,4]triazolo[4,3-a]pyrazin-8(5H)-one after 30 mins; type: functional
[7] = tested on: Rattus norvegicus; test: Ex vivo receptor occupancy at P2X7 receptor in po dosed rat brain hippocampal tissue assessed as brain concentration required for [3H]-(S)-7-(2-chloro-3-(trifluoromethyl)benzyl)-6-methyl-3-(pyrazin-2-yl)-6,7-dihydro-[1,2,4]triazolo[4,3-a]pyrazin-8(5H)-one displacement after 30 mins; type: functional, organism-based
[8] = Clearance in Sprague-Dawley rat at 1 mg/kg, iv after 0.033 to 24 hrs by LC/MS/MS analysis; type: ADME, organism-based; settings: in vivo
[9] = Clearance in Beagle dog at 1 mg/kg, iv after 0.033 to 24 hrs by LC/MS/MS analysis; type: ADME, organism-based, Canis lupus familiaris; settings: in vivo
[10] = Clearance in cynomolgus monkey at 1 mg/kg, iv after 0.033 to 24 hrs by LC/MS/MS analysis; type: ADME, organism-based, Macaca fascicularis; settings: in vivo
[11] = Volume of distribution at steady state in Sprague-Dawley rat at 1 mg/kg, iv after 0.033 to 24 hrs by LC/MS/MS analysis; type: ADME, organism-based; settings: in vivo, read-out: Vdss
[12] = Volume of distribution at steady state in cynomolgus monkey at 1 mg/kg, iv after 0.033 to 24 hrs by LC/MS/MS analysis; type: ADME, organism-based, Macaca fascicularis; settings: in vivo, read-out: Vdss
[13] = Half life in Sprague-Dawley rat at 1 mg/kg, iv by LC/MS/MS analysis; type: ADME, organism-based; settings: in vivo
[14] = Half life in Beagle dog at 1 mg/kg, iv by LC/MS/MS analysis; type: ADME, organism-based, Canis lupus familiaris; settings: in vivo
[15] = Half life in cynomolgus monkey at 1 mg/kg, iv by LC/MS/MS analysis; type: ADME, organism-based, Macaca fascicularis; settings: in vivo
[16] = Cmax in Sprague-Dawley rat at 5 mg/kg, po after 0.033 to 24 hrs by LC/MS/MS analysis; type: ADME, organism-based; parameters: dose 5 mg/kg, route oral; settings: in vivo
[17] = Cmax in Beagle dog at 5 mg/kg, po after 0.033 to 24 hrs by LC/MS/MS analysis; type: ADME, organism-based, Canis lupus familiaris; parameters: dose 5 mg/kg, route oral; settings: in vivo
[18] = Cmax in cynomolgus monkey at 5 mg/kg, po after 0.033 to 24 hrs by LC/MS/MS analysis; type: ADME, organism-based, Macaca fascicularis; parameters: dose 5 mg/kg, route oral; settings: in vivo
[19] = Tmax in Sprague-Dawley rat at 5 mg/kg, po after 0.033 to 24 hrs by LC/MS/MS analysis; type: ADME, organism-based; settings: in vivo
[20] = Oral bioavailability in Sprague-Dawley rat at 5 mg/kg after 0.033 to 24 hrs by LC/MS/MS analysis; type: ADME, organism-based; settings: in vivo
[21] = Tmax in rat at 1000 mg/kg, po; type: ADME, organism-based; settings: in vivo
[22] = tested on: Rattus norvegicus; test: Toxicity in rat assessed as increase in total serum cholesterol at 125 to 250 mg/kg, po administered for 4 days followed by necropsy on day 5 post treatment by histological analysis; type: organism-based; settings: in vivo, 96 h
[23] = tested on: Rattus norvegicus; test: Toxicity in rat assessed as central lobular hepatocellular degeneration at 250 mg/kg/day, po administered for 4 days followed by necropsy on day 5 post treatment by histological analysis; type: organism-based; settings: in vivo, 96 h
[24] = target: T2, CYP3A4 (Homo sapiens, UniProt P08684); test: Inhibition of CYP3A4 in human liver microsomes using midazolam as substrate assessed as reduction in 1-OH-midazolam formation at 0.625 uM by LC/MS/MS analysis; type: ADME; settings: probe midazolam
T2 sequence (P08684 whole entry): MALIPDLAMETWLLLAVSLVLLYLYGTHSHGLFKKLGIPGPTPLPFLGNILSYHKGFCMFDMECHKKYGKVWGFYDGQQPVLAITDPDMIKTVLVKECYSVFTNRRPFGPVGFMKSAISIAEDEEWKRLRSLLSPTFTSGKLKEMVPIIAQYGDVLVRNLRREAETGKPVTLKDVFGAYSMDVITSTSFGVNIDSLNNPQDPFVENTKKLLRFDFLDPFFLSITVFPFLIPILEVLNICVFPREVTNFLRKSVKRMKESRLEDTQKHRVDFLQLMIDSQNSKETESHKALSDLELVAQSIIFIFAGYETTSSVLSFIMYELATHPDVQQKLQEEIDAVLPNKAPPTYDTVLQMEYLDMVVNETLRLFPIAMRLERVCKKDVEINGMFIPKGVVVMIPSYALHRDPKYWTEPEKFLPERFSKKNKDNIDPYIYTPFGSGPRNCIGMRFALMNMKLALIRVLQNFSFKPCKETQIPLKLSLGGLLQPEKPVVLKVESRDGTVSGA

[25] = target: T2, CYP3A4; test: Inhibition of CYP3A4 in human liver microsomes using midazolam as substrate assessed as reduction in 1-OH-midazolam formation at 2.5 uM by LC/MS/MS analysis; type: ADME; settings: probe midazolam
[26] = target: T2, CYP3A4; test: Inhibition of CYP3A4 in human liver microsomes using midazolam as substrate assessed as reduction in 1-OH-midazolam formation at 5 uM by LC/MS/MS analysis; type: ADME; settings: probe midazolam
[27] = Permeability from apical to basolateral side in human Caco2 cells at 10 uM after 60 mins by LC/MS/MS analysis; type: ADME, cell-based; settings: Caco-2, read-out: permeability
[28] = tested on: Rattus norvegicus; test: Toxicity in rat assessed as CNS side effects up to 250 mg/kg, po for 4 days followed by necropsy on day 5 post treatment; type: organism-based; settings: in vivo, 96 h
[29] = tested on: Rattus norvegicus; test: Toxicity in rat assessed as induction of central lobular hepatocellular necrosis at 250 mg/kg/day, po administered for 4 days followed by necropsy on day 5 post treatment by histological analysis; type: organism-based; settings: in vivo, 96 h
[30] = Brain tissue binding in rat brain homogenate at 5 uM after 5 hrs by LC/MS/MS analysis; settings: in vitro
[31] = Solubility of the compound in phosphate buffer at pH 7 at room temperature after 3 days

## C[C@@H]1c2ncn(-c3ccc(F)cn3)c2CCN1C(=O)c1cccc(C(F)(F)F)c1Cl
[1]
  IC50: 72 nM
[2]
  fraction unbound at 6 h, 1 µM: 0.055
[3]
  fraction unbound at 6 h, 1 µM: 0.051
[4]
  Drug metabolism: Metabolite_Notdetected
[5]
  fIC50: 15 nM
[5]; Rattus norvegicus, P2X7, Brain/Plasma
  EC50: 0.125 µg/mL (≈ 0.285 µM)
[6]
  ED50: 2.3 mg/kg
  inhibition: Dose-dependent effect
[7]
  fIC50: 12 nM
[7]; Rattus norvegicus, P2X7
  EC50: 0.362 µg/mL (≈ 0.825 µM)
[8]
  clearance: 30 mL/min/kg
[9]
  clearance: 5.5 mL/min/kg
[10]
  clearance: 14 mL/min/kg
[11]
  Vd: 3.8 L/kg
[12]
  Vd: 2.1 L/kg
[13]
  half-life: 102 min
[14]
  half-life: 714 min
[15]
  half-life: 252 min
[16]
  Cmax: 375 ng/mL
[17]
  Cmax: 1250 ng/mL
[18]
  Cmax: 389 ng/mL
[19]
  Tmax: 1 h
[20]
  bioavailability: 55%
[21]
  Tmax: 24 h
[22]
  Activity: Toxic
[23]
  Activity: Toxic
[24]
  inhibition at 0.625 µM: 29%
[25]
  inhibition at 2.5 µM: 52%
[26]
  inhibition at 5 µM: 63%
[27]
  Papp A→B at 1 h, 10 µM: 65 ×10⁻⁶ cm/s
[28]
  Activity: Non-Toxic
[29]
  Activity: Toxic
[30]
  Brain tissue binding: 98.5%
[31]
  solubility at 72 h: 29 µM (≈ 12.7 µg/mL)

From ChEMBL document CHEMBL3856233, “Identification of (R)-(2-Chloro-3-(trifluoromethyl)phenyl)(1-(5-fluoropyridin-2-yl)-4-methyl-6,7-dihydro-1H-imidazo[4,5-c]pyridin-5(4H)-yl)methanone (JNJ 54166060), a Small Molecule Antagonist of the P2X7 receptor” (J Med Chem, 2016)
